Experimental data from patent US12565480B2, “Thiophene derivatives as xanthine oxidase inhibitors and application thereof” (Tonghua Dongbao Pharmaceutical Co., Ltd., priority 2019, dated 2026).

Tests used:
[1] = test system: Human hepatocytes; assay: Hepatocytes metabolic stability (HMS), human hepatocytes; assay type: in vitro ADME; settings: for Intrinsic hepatic clearance, Human: CLint(liver)
Description: (§1) Assay Example 3: Hepatocytes Metabolic Stability (HMS) Study
(§2) To test the metabolic stability of the test sample in human and rat hepatocytes.
(§3) 2.1 Test compound (10 mM), control substance: 7-Ethoxycoumarin (30 mM), 7-Hydroxycoumarin (control substance, 30 mM)
(§4) 2.3 Buffer System: • Thawing medium: Williams' medium E containing 5% fetal bovine serum, 30% Percoll solution and other auxiliary materials • Incubation medium: Williams medium E (without phenol red) containing 2 mM L-glutamine and 25 mM hydroxyethylpiperazine ethane sulfonic acid. • Stop solution: 200 ng/mL of tosylbutyramide and labetalol in acetonitrile as internal standards. • Dilution solution: Ultrapure water. 3. Method of the Assay • 1) The exact amount of positive control compound was dissolved in dimethyl sulfoxide (DMSO) to give a 30 mM solution • 2) 10 mM test compound and 30 mM positive control compound were diluted to 1 mM and 3 mM with DMSO in 96-well plates. • 3) 1 mM test compound and 3 mM positive control compound was diluted into 100 μM and 300 μM quantification solutions with acetonitrile. • 4) The cryopreserved cells were thawed, dissociated and suspended in culture medium, and then diluted to 0.5×10^6 cells/mL with pre-warmed culture medium. • 5) 198 μL of pre-warmed cell suspension was added to a 96-well plate. • 6) 100 μL of stop solution (acetonitrile containing 200 ng/mL tosylbutyramide and 200 ng/mL labetalol as internal standard) was transferred in a set of pre-labeled 96-well plates. • 7) 2 μL of 100 μM test compound or 300 μM positive control quantitation solution was added in duplicate to each well of the 96-well plate. • 8) The TO samples were mixed to achieve uniform suspension over about 1 min, and then 20 μL of each sample was immediately transferred into wells containing 100 μL of ice-cold stop solution followed by mixing. • 9) All plates were incubated at 37° C. in 5% CO2 in a 95% humidified incubator, with constant shaking at approximately 600 rpm for reaction. • 10) At 15, 30, 60 and 90 min, samples were mixed, and then 20 μL of each sample was transferred to wells containing 100 μL of ice-cold stop solution at each time point and mixed. • 11) Medium control (MC) sample plates (labeled as TO-MC and T90-MC) were prepared at TO and T90 by adding the same components to each well except for the cell suspension. […]
(§5) The elimination rate constant k of the test compound and the control compound in hepatocytes was calculated by plotting the logarithm of the residual ratio vs time, and the half-life (T1/2) and in vitro intrinsic clearance rate (CLint) were obtained by using the elimination rate k. […]

[2] = target: CYP3A4-M (Homo sapiens (Human), UniProt P08684); assay: Cytochrome P450 isozyme inhibitory activity test, CYP3A4-M; assay type: in vitro ADME; settings: human liver microsomes; read-out: Cytochrome P450 isoenzyme IC50, CYP3A4-M
Description: (§6) Cytochrome P450 Isozyme Inhibitory Activity Test
(§7) The inhibitory activities of test compounds against different subtypes of human cytochrome P450 isoenzymes were determined.
(§8) Preparing test compounds, standard inhibitor (100×final concentration) and mixed substrate working solutions; Microsomes (purchased from Corning Inc) frozen in −80° C. freezer was taken out and thawed. 20 μL of the test compound and standard inhibitor solution were added to the corresponding wells, and at the same time 20 μL of the corresponding solvent was added to the no inhibitor control wells (NIC) and blank control wells (Blank); then 20 μL of mixed substrate solution was added to the corresponding wells, except for Blank wells (adding 20 μL of Phosphate Buffer (PB) to Blank wells); the human liver microsome solution was prepared (marking the date after use and putting back in the refrigerator immediately), then 158 μL of human liver microsome solution was immediately added to all wells; the above sample plate was pre-incubated in a 37° C. water bath, and then coenzyme factor (NADPH) solution was prepared; 10 minutes later, 20 μL of NADPH solution was added to all wells. […]

[3] = target: CYP2C19 (Homo sapiens (Human), UniProt P33261); assay: Cytochrome P450 isozyme inhibitory activity test, CYP2C19; assay type: in vitro ADME; settings: human liver microsomes; read-out: Cytochrome P450 isoenzyme IC50, CYP2C19
Description: as §6, §7, §8

[4] = Pharmacokinetics in SD rats
Description: Pharmacokinetics of test compounds in SD rats
Sprague Dawley Rat (male, 180-350 g, 6-10 weeks old, Charles River Laboratories, Beijing)
Six male SD rats were divided into 2 groups. […] Whole blood was collected at 0 (the gavage group only), 0.083 (intravenous only), 0.25, 0.5, 1, 2, 4, 8 and 24 hours after administration. Whole blood was centrifuged at 3200 g at 4° C. for 10 min to obtain plasma.

[5] = target: CYP1A2 (Homo sapiens (Human), UniProt P05177); assay: Cytochrome P450 isozyme inhibitory activity test, CYP1A2; assay type: in vitro ADME; settings: human liver microsomes; read-out: Cytochrome P450 isoenzyme IC50, CYP1A2
Description: as §6, §7, §8

[6] = target: CYP2D6 (Homo sapiens (Human), UniProt P10635); assay: Cytochrome P450 isozyme inhibitory activity test, CYP2D6; assay type: in vitro ADME; settings: human liver microsomes; read-out: Cytochrome P450 isoenzyme IC50, CYP2D6
Description: as §6, §7, §8

[7] = test system: Rat hepatocytes; assay: Hepatocytes metabolic stability (HMS), rat hepatocytes; assay type: in vitro ADME; settings: for Intrinsic hepatic clearance, Rat: CLint(liver)
Description: as §1, §2, §3, §4, §5

[8] = target: CYP2C9 (Homo sapiens (Human), UniProt P11712); assay: Cytochrome P450 isozyme inhibitory activity test, CYP2C9; assay type: in vitro ADME; settings: human liver microsomes; read-out: Cytochrome P450 isoenzyme IC50, CYP2C9
Description: as §6, §7, §8

[9] = test system: MDR1-MDCK II cells; settings: for Papp (AB) / Papp (BA): 2 μM, pH 7.4, […]; for Papp (AB): A to B; for Papp (BA): B to A
Description: Membrane Permeability MDR1 Test
MDR1-MDCK II cells are Madin-Darby canine kidney cells transfected with human MDR1 gene, which can stably express high P-gp. The aim of this study was to test the bidirectional permeability of compounds across the MDR1-MDCK II cell model and to assess whether they are transported by efflux.
Test compounds were diluted in transport buffer (HBSS, 10 mM Hepes with DMSO, pH 7.4) to a concentration of 2 μM (DMSO<1%) and applied on the apical or basolateral side of the cell monolayer. The compound to be tested was tested in duplicate in the direction of from A to B or from B to A, digoxin was tested at 10 μM in the direction of from A to B or from B to A, while nadolol and metoprolol were tested at 2 μM from A to B. Plates were incubated in a CO2 incubator at 37±1° C. in a saturated humidity of 5% CO2 for 2.5 hours without shaking. In addition, the efflux ratio of each compound was determined, and for the test and reference compounds quantitation was conducted. Analysis was carried out by LC/MS/MS according to the peak area ratio of analyte/IS. After the transport assay, the Lucifer Yellow exclusion assay was used to determine integrity of the cell monolayer. The buffer was removed from the apical and basolateral compartments, then 75 μL of 100 μM luciferin yellow was added to the transport buffer, and 250 μL of the transport buffer was added to the apical and basolateral compartments, respectively. The plate was incubated at 37° C., 5% CO2 and saturated humidity for 30 minutes without shaking. After 30 minutes of incubation, 20 μL of luciferin yellow sample was withdrawn from the apical, followed by the addition of 60 μL of transport buffer. An 80 μL luciferin yellow sample was then collected basolaterally.
The apparent permeability coefficient (Papp, cm/s), efflux rate and recovery rate were calculated using the following formulae.
[formula] dCr/dt is the cumulative concentration of the compound at the receiver end over unit time (μM/s); Vr is the volume of the receiver end solution (0.075 mL and 0.250 mL for the apical and basal ends, respectively); Ais the relative surface area (0.0804 cm^2) of the cell monolayer; C0 is the initial concentration (nM) of the test substance at the administration end or the peak area ratio of the reference substance.
[formula] C0 is the initial concentration (nM) of the test substance at the administration end or the peak area ratio of the reference substance; Va is the volume of the administration end (0.075 mL for the apical side and 0.250 mL for the basal side); Cd and Cr are the final concentration (nM) of the test substance at the administration end and the receiver end or the peak area ratio of the reference substance.

[10] = 2 subjects; cited from earlier work
[11] = high dose of 80 mg/day; cited from earlier work

CYP2C19, sequence (P33261 whole entry): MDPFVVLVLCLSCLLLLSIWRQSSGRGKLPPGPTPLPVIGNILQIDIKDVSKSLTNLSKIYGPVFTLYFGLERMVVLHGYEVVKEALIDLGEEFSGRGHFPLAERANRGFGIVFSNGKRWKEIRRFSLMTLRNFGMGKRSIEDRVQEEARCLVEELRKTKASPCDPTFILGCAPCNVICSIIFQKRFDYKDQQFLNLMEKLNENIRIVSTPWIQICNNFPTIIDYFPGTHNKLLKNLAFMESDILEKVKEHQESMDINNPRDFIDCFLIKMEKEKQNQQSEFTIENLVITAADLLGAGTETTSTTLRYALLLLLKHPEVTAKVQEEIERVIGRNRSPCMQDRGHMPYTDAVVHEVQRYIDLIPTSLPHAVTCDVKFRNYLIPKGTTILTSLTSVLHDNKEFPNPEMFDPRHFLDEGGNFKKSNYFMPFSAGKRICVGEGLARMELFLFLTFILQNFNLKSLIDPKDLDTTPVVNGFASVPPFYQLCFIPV
CYP2D6, sequence (P10635 whole entry): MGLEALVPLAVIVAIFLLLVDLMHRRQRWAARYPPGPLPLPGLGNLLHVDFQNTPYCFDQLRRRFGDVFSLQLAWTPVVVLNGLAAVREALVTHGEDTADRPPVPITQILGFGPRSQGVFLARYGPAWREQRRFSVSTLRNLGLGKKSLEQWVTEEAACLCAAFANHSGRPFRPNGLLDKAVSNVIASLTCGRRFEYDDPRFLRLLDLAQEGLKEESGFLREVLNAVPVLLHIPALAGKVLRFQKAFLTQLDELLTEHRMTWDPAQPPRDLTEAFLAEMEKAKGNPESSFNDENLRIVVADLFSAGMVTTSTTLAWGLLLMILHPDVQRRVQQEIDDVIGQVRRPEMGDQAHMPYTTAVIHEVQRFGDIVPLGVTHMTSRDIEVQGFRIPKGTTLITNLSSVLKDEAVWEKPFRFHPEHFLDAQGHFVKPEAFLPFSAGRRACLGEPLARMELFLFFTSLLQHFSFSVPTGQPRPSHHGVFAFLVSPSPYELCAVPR
CYP3A4-M, sequence (P08684 whole entry): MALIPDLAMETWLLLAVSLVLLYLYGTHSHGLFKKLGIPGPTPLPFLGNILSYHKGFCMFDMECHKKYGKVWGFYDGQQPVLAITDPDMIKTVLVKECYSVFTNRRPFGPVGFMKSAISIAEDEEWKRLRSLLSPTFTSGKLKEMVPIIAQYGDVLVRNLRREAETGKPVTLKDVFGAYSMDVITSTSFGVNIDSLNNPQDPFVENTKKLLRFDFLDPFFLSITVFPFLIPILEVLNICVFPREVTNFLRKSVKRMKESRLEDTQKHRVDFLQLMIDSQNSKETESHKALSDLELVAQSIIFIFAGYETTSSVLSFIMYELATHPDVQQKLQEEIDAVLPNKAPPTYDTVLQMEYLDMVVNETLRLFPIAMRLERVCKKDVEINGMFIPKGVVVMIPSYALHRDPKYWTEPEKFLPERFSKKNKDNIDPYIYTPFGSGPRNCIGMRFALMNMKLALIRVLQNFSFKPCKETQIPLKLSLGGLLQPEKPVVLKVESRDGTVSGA
CYP1A2, sequence (P05177 whole entry): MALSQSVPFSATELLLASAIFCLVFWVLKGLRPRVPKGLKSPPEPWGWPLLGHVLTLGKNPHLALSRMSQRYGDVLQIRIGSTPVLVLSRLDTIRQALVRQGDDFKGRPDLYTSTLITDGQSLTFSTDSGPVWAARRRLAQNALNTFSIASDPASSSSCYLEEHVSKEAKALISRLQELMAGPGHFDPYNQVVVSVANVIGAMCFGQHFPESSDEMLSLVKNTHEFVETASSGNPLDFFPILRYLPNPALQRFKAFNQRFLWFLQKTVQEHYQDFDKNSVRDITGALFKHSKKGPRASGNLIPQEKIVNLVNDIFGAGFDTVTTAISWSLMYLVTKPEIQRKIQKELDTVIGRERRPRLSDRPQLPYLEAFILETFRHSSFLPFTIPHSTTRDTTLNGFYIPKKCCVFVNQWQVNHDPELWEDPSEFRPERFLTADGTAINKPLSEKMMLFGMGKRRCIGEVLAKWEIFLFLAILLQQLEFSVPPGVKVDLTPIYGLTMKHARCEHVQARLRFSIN
CYP2C9, sequence (P11712 whole entry): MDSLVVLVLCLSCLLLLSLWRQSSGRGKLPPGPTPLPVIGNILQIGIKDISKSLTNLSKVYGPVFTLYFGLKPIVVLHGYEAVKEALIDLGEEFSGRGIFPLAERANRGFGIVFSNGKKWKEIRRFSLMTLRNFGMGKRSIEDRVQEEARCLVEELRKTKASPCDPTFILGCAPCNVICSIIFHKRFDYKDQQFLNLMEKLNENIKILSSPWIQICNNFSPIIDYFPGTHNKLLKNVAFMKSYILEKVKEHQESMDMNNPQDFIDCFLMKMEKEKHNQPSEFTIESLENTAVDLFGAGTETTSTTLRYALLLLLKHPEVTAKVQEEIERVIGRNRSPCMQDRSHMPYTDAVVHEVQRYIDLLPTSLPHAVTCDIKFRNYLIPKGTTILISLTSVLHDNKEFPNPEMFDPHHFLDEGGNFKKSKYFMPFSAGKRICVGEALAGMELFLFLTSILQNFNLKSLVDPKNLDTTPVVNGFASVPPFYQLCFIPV

## N#Cc1sc(-c2ccc(C(=O)O)c(O)c2)c2c1CCC(F)(F)C2 [Compound 2]
[1]
  Clearance in human hepatocytes (in words): moderate clearance
  Intrinsic hepatic clearance, Human: 31.8 mL/min/kg
[2]
  IC50: > 50 µM
[3]
  IC50: > 50 µM
[4]
  Pharmacokinetic properties (in words): good pharmacokinetic properties
[4]; 2.89 mpk Intravenous injection
  AUC0-inf: 41.8 µM·h
  C0: 96.6 µM
  Cl: 3.59 mL/min/kg
  T1/2: 3.74 h
  Vdss: 0.32 L/kg
[4]; 8.58 mpk Oral
  AUC0-inf: 86.6 µM·h
  Cmax: 27.5 µM
  T1/2: 2.47 h
  Tmax: 0.5 h
[4]; 8.58 mpk Oral vs 2.89 mpk Intravenous injection
  Bioavailability: 62.1%
[4]; oral
  Oral bioavailability (in words): high oral bioavailability
[5]
  IC50: > 50 µM
[6]
  IC50: > 50 µM
[7]
  Clearance in rat hepatocytes (in words): high clearance
  Intrinsic hepatic clearance, Rat: 188.4 mL/min/kg
[8]
  IC50: 18.1 µM
[9]
  Permeability (in words): high permeability
  Papp (AB): 26.42 10^−6 cm/s
  Papp (BA): 6.63 10^−6 cm/s

## N#Cc1sc(-c2ccc(C(=O)O)c(O)c2)c2c1CCC2 [Compound 3]
[1]
  Clearance in human hepatocytes (in words): moderate clearance
  Intrinsic hepatic clearance, Human: 48.2 mL/min/kg
[2]
  IC50: > 50 µM
[3]
  IC50: > 50 µM
[5]
  IC50: > 50 µM
[6]
  IC50: > 50 µM
[7]
  Clearance in rat hepatocytes (in words): high clearance
  Intrinsic hepatic clearance, Rat: 1097.9 mL/min/kg
[8]
  IC50: 14.8 µM
[9]
  Permeability (in words): high permeability
  Papp (AB): 38.63 10^−6 cm/s
  Papp (BA): 10.99 10^−6 cm/s

## N#Cc1cn(-c2ccc(C(=O)O)c(O)c2)c2ccccc12 [PF-06743649]
[10]
  Side effects after administration in clinical phase I trial: acute PF-06743649-induced renal injury side effects

## Cc1nc(-c2ccc(OCC(C)C)c(C#N)c2)sc1C(=O)O [febusteine]
[11]
  Patients who do not achieve the expected goal of lowing uric acid: 40% to 52
